Measured values published in PubChem BioAssay (NCI).
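Test compounds were applied to cells in 96-well plates for 48 hours at 5 doses. GI50 is the concentration that inhibits growth by half. TGI denotes the concentration required for complete inhibition of growth.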

Legend:
Test in all cases: NCI-60 cell line screen, 48 h
LOX IMVI melanoma = tested on: LOX IMVI melanoma
SN12C renal = tested on: SN12C renal
SF-268 CNS = tested on: SF-268 CNS
SR leukemia = tested on: SR leukemia
OVCAR-4 ovarian = tested on: OVCAR-4 ovarian
CCRF-CEM leukemia = tested on: CCRF-CEM leukemia
NCI/ADR-RES ovarian = tested on: NCI/ADR-RES ovarian
SF-295 CNS = tested on: SF-295 CNS
SNB-75 CNS = tested on: SNB-75 CNS
SK-MEL-28 melanoma = tested on: SK-MEL-28 melanoma
UACC-257 melanoma = tested on: UACC-257 melanoma
COLO 205 colon = tested on: COLO 205 colon
UO-31 renal = tested on: UO-31 renal
U251 CNS = tested on: U251 CNS
NCI-H226 lung = tested on: NCI-H226 lung
RPMI-8226 leukemia = tested on: RPMI-8226 leukemia
PC-3 prostate = tested on: PC-3 prostate
IGROV1 ovarian = tested on: IGROV1 ovarian
HT29 colon = tested on: HT29 colon
786-0 renal = tested on: 786-0 renal
SK-MEL-2 melanoma = tested on: SK-MEL-2 melanoma
SNB-19 CNS = tested on: SNB-19 CNS
MDA-MB-468 breast = tested on: MDA-MB-468 breast
HOP-62 NSCLC = tested on: HOP-62 NSCLC
OVCAR-5 ovarian = tested on: OVCAR-5 ovarian
MALME-3M melanoma = tested on: MALME-3M melanoma
RXF 393 renal = tested on: RXF 393 renal
SW-620 colon = tested on: SW-620 colon
CAKI-1 renal = tested on: CAKI-1 renal
OVCAR-8 ovarian = tested on: OVCAR-8 ovarian
A549 NSCLC = tested on: A549 NSCLC
T-47D breast = tested on: T-47D breast
NCI-H460 lung = tested on: NCI-H460 lung
DU-145 prostate = tested on: DU-145 prostate
ACHN renal = tested on: ACHN renal
HL-60(TB) leukemia = tested on: HL-60(TB) leukemia
SF-539 CNS = tested on: SF-539 CNS
HS 578T breast = tested on: HS 578T breast
SK-MEL-5 melanoma = tested on: SK-MEL-5 melanoma
NCI-H522 lung = tested on: NCI-H522 lung
HCT-15 colon = tested on: HCT-15 colon
A498 renal = tested on: A498 renal
SK-OV-3 ovarian = tested on: SK-OV-3 ovarian
EKVX NSCLC = tested on: EKVX NSCLC
K-562 leukemia = tested on: K-562 leukemia
MCF7 breast = tested on: MCF7 breast
HCC-2998 colon = tested on: HCC-2998 colon
BT-549 breast = tested on: BT-549 breast
HOP-92 NSCLC = tested on: HOP-92 NSCLC
HCT-116 colon = tested on: HCT-116 colon
M14 melanoma = tested on: M14 melanoma
NCI-H23 lung = tested on: NCI-H23 lung
TK-10 renal = tested on: TK-10 renal
MDA-MB-435 = tested on: MDA-MB-435
KM12 colon = tested on: KM12 colon
OVCAR-3 ovarian = tested on: OVCAR-3 ovarian
MDA-MB-231 breast = tested on: MDA-MB-231 breast
UACC-62 melanoma = tested on: UACC-62 melanoma
MOLT-4 leukemia = tested on: MOLT-4 leukemia

`Cc1ccc(CNC(=O)Cc2ccc3c(c2)CN(C2CCC(=O)NC2=O)C3=O)cc1` (centres undefined) showed a GI50 (LOX IMVI melanoma) greater than 71600 nM, a TGI (LOX IMVI melanoma) greater than 100000 nM and a GI50 (SN12C renal) of 21.7 nM. It also gave a GI50 (SF-268 CNS) of 29.9 nM, a TGI (SF-268 CNS) greater than 100000 nM and a GI50 (SR leukemia) of 4540 nM. It also gave a TGI (SR leukemia) greater than 100000 nM, a GI50 (OVCAR-4 ovarian) of 32.1 nM and a GI50 (CCRF-CEM leukemia) of less than 10 nM. It also gave a TGI (CCRF-CEM leukemia) greater than 100000 nM, a GI50 (NCI/ADR-RES ovarian) of 470 nM and a TGI (NCI/ADR-RES ovarian) greater than 100000 nM. It also gave a GI50 (SF-295 CNS) of 46 nM, a TGI (SF-295 CNS) greater than 100000 nM and a GI50 (SNB-75 CNS) of less than 10 nM. The TGI (SNB-75 CNS) was 357 nM, the GI50 (SK-MEL-28 melanoma) was 70.1 nM and the TGI (SK-MEL-28 melanoma) was greater than 100000 nM. The GI50 (UACC-257 melanoma) was greater than 100000 nM, the TGI (UACC-257 melanoma) was greater than 100000 nM and the GI50 (COLO 205 colon) was less than 10 nM. The TGI (COLO 205 colon) was 54.5 nM, the GI50 (UO-31 renal) was 19.1 nM and the TGI (UO-31 renal) was 469 nM. It also gave a GI50 (U251 CNS) of 375 nM, a TGI (U251 CNS) greater than 100000 nM and a GI50 (NCI-H226 lung) of less than 10 nM. For the same compound, the TGI (NCI-H226 lung) was 1030 nM, the GI50 (RPMI-8226 leukemia) was 40.9 nM and the TGI (RPMI-8226 leukemia) was greater than 100000 nM. The GI50 (PC-3 prostate) was less than 10 nM, the GI50 (IGROV1 ovarian) was less than 10 nM and the TGI (IGROV1 ovarian) was 148 nM. The GI50 (HT29 colon) was 50.1 nM, the TGI (HT29 colon) was greater than 100000 nM and the GI50 (786-0 renal) was 20.2 nM. It also gave a GI50 (SK-MEL-2 melanoma) of 20.6 nM, a TGI (SK-MEL-2 melanoma) of 94.5 nM and a GI50 (SNB-19 CNS) of less than 11.5 nM. The GI50 (MDA-MB-468 breast) was less than 10 nM, the GI50 (HOP-62 NSCLC) was less than 10 nM and the TGI (HOP-62 NSCLC) was 110 nM. For the same compound, the GI50 (OVCAR-5 ovarian) was 16.9 nM, the TGI (OVCAR-5 ovarian) was 1780 nM and the GI50 (MALME-3M melanoma) was less than 10 nM. It also gave a TGI (MALME-3M melanoma) of less than 12.6 nM, a GI50 (RXF 393 renal) of 24.8 nM and a TGI (RXF 393 renal) of 955 nM. For the same compound, the GI50 (SW-620 colon) was less than 10 nM, the TGI (SW-620 colon) was greater than 100000 nM and the GI50 (CAKI-1 renal) was 25.1 nM. It also gave a TGI (CAKI-1 renal) greater than 100000 nM, a GI50 (OVCAR-8 ovarian) of less than 10 nM and a GI50 (A549 NSCLC) of 51.5 nM. The TGI (A549 NSCLC) was greater than 100000 nM, the GI50 (T-47D breast) was less than 10 nM and the TGI (T-47D breast) was 29.2 nM. For the same compound, the GI50 (NCI-H460 lung) was greater than 100000 nM, the TGI (NCI-H460 lung) was greater than 100000 nM and the GI50 (DU-145 prostate) was 1090 nM. For the same compound, the TGI (DU-145 prostate) was greater than 100000 nM, the GI50 (ACHN renal) was 445 nM and the TGI (ACHN renal) was greater than 100000 nM. The GI50 (HL-60(TB) leukemia) was less than 10 nM, the TGI (HL-60(TB) leukemia) was 2740 nM and the GI50 (SF-539 CNS) was 50.3 nM. It also gave a TGI (SF-539 CNS) greater than 100000 nM, a GI50 (HS 578T breast) of less than 10 nM and a TGI (HS 578T breast) of 267 nM. The GI50 (SK-MEL-5 melanoma) was 14.8 nM, the TGI (SK-MEL-5 melanoma) was 59.4 nM and the GI50 (NCI-H522 lung) was 622 nM. The TGI (NCI-H522 lung) was greater than 100000 nM, the GI50 (HCT-15 colon) was 16 nM and the TGI (HCT-15 colon) was 888 nM. The GI50 (A498 renal) was 18.3 nM, the TGI (A498 renal) was 648 nM and the GI50 (SK-OV-3 ovarian) was 77 nM. It also gave a GI50 (EKVX NSCLC) of 384 nM, a TGI (EKVX NSCLC) greater than 100000 nM and a GI50 (K-562 leukemia) of 51.5 nM. It also gave a TGI (K-562 leukemia) greater than 100000 nM, a GI50 (MCF7 breast) of 21.7 nM and a TGI (MCF7 breast) greater than 100000 nM. It also gave a GI50 (HCC-2998 colon) of less than 10 nM, a TGI (HCC-2998 colon) of 258 nM and a GI50 (BT-549 breast) of less than 10 nM. For the same compound, the TGI (BT-549 breast) was less than 12.8 nM, the GI50 (HOP-92 NSCLC) was less than 10 nM and the TGI (HOP-92 NSCLC) was less than 19.6 nM. For the same compound, the GI50 (HCT-116 colon) was greater than 36500 nM, the TGI (HCT-116 colon) was greater than 100000 nM and the GI50 (M14 melanoma) was less than 13.1 nM. It also gave a TGI (M14 melanoma) of 1850 nM, a GI50 (NCI-H23 lung) of 5090 nM and a TGI (NCI-H23 lung) greater than 100000 nM. The GI50 (TK-10 renal) was 95.3 nM, the TGI (TK-10 renal) was greater than 100000 nM and the GI50 (MDA-MB-435) was 43.6 nM. It also gave a TGI (MDA-MB-435) greater than 100000 nM, a GI50 (KM12 colon) of 31.1 nM and a TGI (KM12 colon) greater than 100000 nM. The GI50 (OVCAR-3 ovarian) was 160 nM, the TGI (OVCAR-3 ovarian) was greater than 100000 nM and the GI50 (MDA-MB-231 breast) was less than 10 nM. The GI50 (UACC-62 melanoma) was 309 nM, the TGI (UACC-62 melanoma) was greater than 100000 nM and the GI50 (MOLT-4 leukemia) was less than 10 nM. It also gave a TGI (MOLT-4 leukemia) greater than 100000 nM.
